# Experimental data from patent US9492467B2, “Rapid-acting insulin formulation comprising an oligosaccharide” (ADOCIA, priority 2011, dated 2016).
# Structures can show the parent of a compound that is named as a salt.
# Legend:
# [1] = target: T1, insulin lispro (hexameric form R6) (Homo sapiens, UniProt P01308, K53P/P52K); experiment: State of association of insulin lispro by circular dichroism (CD signal at 251 nm); type: physicochemical; conditions: added to Humalog, FIG. 27
# T1 construct: purchased Eli Lilly Humalog®
# T1 sequence (P01308 25-54 P52K/K53P limits assumed): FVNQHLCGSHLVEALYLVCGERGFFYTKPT
# T1 sequence (P01308 90-110 limits assumed): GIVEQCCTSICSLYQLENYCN
# From the text: Circular dichroism makes it possible to study the secondary and quaternary structure of insulin. The insulin monomers organize into dimers and hexamers. […] There are two hexameric forms, form R6 and form T6. […] Loss of the CD signal at 251 nm is connected with destabilization of the hexamer (and therefore the first sign of transformation of the hexamer to dimer).
# [2] = target: human insulin (hexameric form) (Homo sapiens, UniProt P01308); experiment: State of association of human insulin by circular dichroism (CD signal at 276 nm); type: physicochemical; conditions: absence of m-cresol, FIG. 28
# human insulin (hexameric form), sequence (P01308 25-54 limits assumed): as the sequence (P01308 25-54 P52K/K53P limits assumed) above, with K28P, P29K counted along it
# From the text: Loss of the CD signal at 276 nm is therefore characteristic of destabilization of the hexamer to dimers or monomers.
# [3] = pH; cited from earlier work
# [4] = system: humans; conditions: injected subcutaneously; cited from earlier work
# [5] = form of hexamers, 4° C.; cited from earlier work
compound,measurement,setting,value
"O=C(O)CN(CCN(CC(=O)O)CC(=O)O)CC(=O)O [EDTA, reference compound]",effect on the CD signal at 251 nm / R6 form of insulin lispro,[1],completely destructures the R6 form of insulin lispro
same,effect on the hexameric structure of human insulin (CD signal at 276 nm),[2],complete dissociation of the hexamer to dimers
"O=C(O)CC(O)(CC(=O)O)C(=O)O [citrate, sodium citrate]",effect on the CD signal at 251 nm / R6 form of insulin lispro,[1],almost no effect
"Insulin lispro: rapid-acting insulin analog, active of Humalog®",isoelectric point,[3],5.3
human insulin: insulin obtained by synthesis or recombination whose peptide sequence is the sequence of human insulin,hypoglycemic effect after,[4],60 min
same,stable for,[5],~2 years
